# Assays:
# [1] = Particle size and polydispersity index of nanoparticle compositions (Zetasizer Nano ZS); format: physicochemical
# Procedure: A Zetasizer Nano ZS (Malvern Instruments Ltd, Malvern, Worcestershire, UK) can be used to determine the particle size, the polydispersity index (PDI) and the zeta potential of the nanoparticle compositions in 1×PBS in determining particle size and 15 mM PBS in determining zeta potential.
# (§1) Initial studies were performed to compare the delivery efficiency of nanoparticle compositions including various compounds according to Formula (I), (IA), (IB), (II), (IIa), (IIb), (IIc), (IId), (IIe), (IIf), (IIg), or (III). The cationic lipid MC3 is a current standard in the art. Accordingly, the standard MC3 formulation including about 50 mol % MC3, about 10 mol % DSPC, about 38.5 mol % cholesterol, and about 1.5 mol % PEG-DMG was used as a basis for this study. Nanoparticle compositions including DSPC as a phospholipid, cholesterol as a structural lipid, PEG-DMG as a PEG lipid, an RNA, and a compound according to Formula (I), (IA), (IB), (II), (IIa), (IIb), (IIc), (IId), (IIe), (IIf), (IIg), or (III) selected from Compounds 1-159, 168-170, and 173-175 were prepared according to or via methods similar to those described in Examples 1 and 2. The ratios of the lipids were 50:10:38.5:1.5 mol % for the lipid according to Formula (I), (IA), (IB), (II), (IIa), (IIb), (IIc), (IId), (IIe), (IIf), (IIg), or (III):DSPC:cholesterol:PEG-DMG. The RNA used was an mRNA encoding luciferase (Luc) or hEPO, wherein each uridine was replaced N1-methyl pseudouridine. Tables 1A-1E summarize the content and characteristics of the formulations.
# [2] = test system: modified luciferase; test: Luciferase expression in liver, lung, spleen and femur 6 hours after intravenous administration to mice; format: in vivo; settings: 6 hours after intravenous 0.5 mpk, mice
# Procedure: The efficacy of the nanoparticle compositions presented in Table 1A was further evaluated by measuring the expression of modified luciferase in the liver, lung, spleen, and femur upon administration of a given composition. Formulations were administered intravenously to mice (n=3) at a dosage of 0.5 mpk and bioluminescence measured after 6 hours. The standard MC3 formulation and a PBS control were also tested. […] Flux in the liver was lowest for compositions including Compounds 58, 59, 137, and 141. Flux in the spleen was highest for compositions including Compounds 4, 7, 33, 34, 48, 53, 108, 129, 130, and 148, and lowest for compositions including Compounds 9, 59, 124, and 141.
# [3] = Encapsulation efficiency of RNA in nanoparticle compositions (RIBOGREEN assay); format: physicochemical
# Procedure: For nanoparticle compositions including an RNA, a QUANT-IT™ RIBOGREEN® RNA assay (Invitrogen Corporation Carlsbad, Calif.) can be used to evaluate the encapsulation of an RNA by the nanoparticle composition. The samples are diluted to a concentration of approximately 5 μg/mL, in a TE buffer solution (10 mM Tris-HCl, 1 mM EDTA, pH 7.5). 50 μL of the diluted samples are transferred to a polystyrene 96 well plate and either 50 μL of TE buffer or 50 μL of a 2% Triton X-100 solution is added to the wells. The plate is incubated at a temperature of 37° C. for 15 minutes. The RIBOGREEN® reagent is diluted 1:100 in TE buffer, and 100 μL of this solution is added to each well. The fluorescence intensity can be measured using a fluorescence plate reader (Wallac Victor 1420 Multilabel Counter; Perkin Elmer, Waltham, Mass.) at an excitation wavelength of, for example, about 480 nm and an emission wavelength of, for example, about 520 nm. The fluorescence values of the reagent blank are subtracted from that of each of the samples and the percentage of free RNA is determined by dividing the fluorescence intensity of the intact sample (without addition of Triton X-100) by the fluorescence value of the disrupted sample (caused by the addition of Triton X-100).
# as §1
# [4] = Table 1A, lipid:DSPC:cholesterol:PEG-DMG 50:10:38.5:1.5 mol %
# [5] = Table 1B, formulated with hEPO mRNA
SMILES,"Size [1, 4]","Total Flux, Liver [2]","Total Flux, Lung [2]","Total Flux, Spleen [2]","EE [3, 4]","Size ([1]; Table 1C, compositions for subcutaneous administration)","Size [1, 5]","EE [3, 5]"
"CCCCCCCCCN(CCCCCCCC(=O)OC(CCCCCCCC)CCCCCCCC)CCCn1ccnc1 [Compound 8, Heptadecan-9-yl 8-((3-(1H-imidazol-1-yl)propyl)(nonyl)amino)octanoate]",121.0 nm,7.87E+08,4.06E+06,1.51E+08,95.8%,,,
"CCCCCCCCCOC(=O)CCCCCCCN(CCC#N)CCCCCCCC(=O)OC(CCCCCCCC)CCCCCCCC [Compound 21, Heptadecan-9-yl 8-((2-cyanoethyl)(8-(nonyloxy)-8-oxooctyl)amino) octanoate]",53.5 nm,,,,−15.1%,,,
"CCCCCCCC/C=C\CCCCCCCCN(CCO)CCCCCCCC(=O)OC(CCCCCCCC)CCCCCCCC [Compound 31, heptadecan-9-yl (Z)-8-((2-hydroxyethyl)(octadec-9-en-1-yl)amino) octanoate]",73.9 nm,5.17E+09,7.55E+06,9.42E+07,95.11%,,,
"CCCCCCCCCOC(=O)CCCCCCCN(CCO)CCCCCCCC(=O)OC(CCCCCC)CCCCCCCC (stereo not drawn) [Compound 32, nonyl 8-((2-hydroxyethyl)(8-oxo-8-(pentadecan-7-yloxy)octyl)amino) octanoate]",105.6 nm,8.52E+09,1.16E+07,1.70E+08,94.87%,,,
"CCCCCCCCCOC(=O)CCCCCCCN(CCO)CCCCCCCC(=O)OC(CCCCC)CCCCCCCC (stereo not drawn) [Compound 33, nonyl 8-((2-hydroxyethyl)(8-oxo-8-(tetradecan-6-yloxy)octyl)amino) octanoate]",107.3 nm,1.78E+10,2.92E+07,3.77E+08,95.66%,,,
"CCCCCCCCCOC(=O)CCCCCCCN(CCO)CCCCCCCC(=O)OC(CC)CCCCCCCC (stereo not drawn) [Compound 35, nonyl 8-((2-hydroxyethyl)(8-oxo-8-(undecan-3-yloxy)octyl)amino) octanoate]",,1.63E+08,2.06E+06,1.23E+08,90.82%,,,
"CCCCCCCCCOC(=O)CCCCCCCN(CCO)CCCCCCCC(=O)OC(C)CCCCCCCC (stereo not drawn) [Compound 36, decan-2-yl 8-((2-hydroxyethyl)(8-(nonyloxy)-8-oxooctyl)amino) octanoate]",,2.65E+07,5.82E+05,6.14E+07,81.45%,,,
"CCCCCCCCC(CCCCCCCC)OC(=O)CCCCCCCN(CCO)CCCC(=O)OCCCC [Compound 51, heptadecan-9-yl 8-((4-butoxy-4-oxobutyl)(2-hydroxyethyl)amino) octanoate]",,2.49E+07,3.67E+05,2.80E+07,89.83%,,,
"CCCCCCCCCOC(=O)CCCCCCCN(CCO)CCCCCCCC(=O)OC(CC)CC [Compound 59, nonyl 8-((2-hydroxyethyl)(8-oxo-8-(pentan-3-yloxy)octyl)amino) octanoate]",,2.87E+05,4.41E+04,9.68E+04,94.44%,,,
"CCCCCCCCC(CCC)OC(=O)CCCN(CCO)CCCCCCCC(=O)OC(CCCCCCCC)CCCCCCCC (stereo not drawn) [Compound 74, Heptadecan-9-yl 8-((4-(dodecan-4-yloxy)-4-oxobutyl)(2-hydroxyethyl)amino)octanoate]",65.6 nm,1.99E+09,6.93E+06,2.26E+07,,,,
"CCCCCCCCC(CC)OC(=O)CCCCCN(CCO)CCCCCCCC(=O)OC(CCCCCCCC)CCCCCCCC (stereo not drawn) [Compound 75, Heptadecan-9-yl 8-((2-hydroxyethyl)(6-oxo-6-(undecan-3-yloxy)hexyl)amino)octanoate]",92.1 nm,1.45E+09,3.92E+06,5.66E+06,,88.6 nm,,
"CCCCCCCCCOC(=O)CCCCCCCN(CCO)CCCCCCCC(=O)Oc1ccc(CCCCC)c(CCCCC)c1 [Compound 118, 3,4-Dipentylphenyl 8-((2-hydroxyethyl)(8-(nonyloxy)-8-oxooctyl)amino)octanoate]",72.1 nm,1.72E+08,1.98E+06,2.49E+07,,,,
"CCCCCCCCC(CCCCCCCC)OC(=O)CCCCCCCN(C)CCCCCCCC(=O)OC(CCCCCCCC)CCCCCCCC [Compound 124, Di(heptadecan-9-yl) 8,8′-(methylazanediyl)dioctanoate]",61.3 nm,8.46E+06,5.67E+04,8.06E+04,,,,
"CCCCCCCCCOC(=O)CCCCCCCN(CCCCCCCC(=O)OC(CCCCCCCC)CCCCCCCC)CCC(=O)O [Compound 125, 3-((8-(Heptadecan-9-yloxy)-8-oxooctyl)(8-(nonyloxy)-8-oxooctyl)amino)propanoic acid]",90.9 nm,,,,79.6%,,,
"CCCCCCCCCOC(=O)CCCN(C)CCCCCCCC(=O)OC(CCCCCCCC)CCCCCCCC [Compound 126, Heptadecan-9-yl 8-(methyl(4-(nonyloxy)-4-oxobutyl)amino)octanoate]",77.4 nm,7.41E+08,2.68E+06,1.87E+07,,,,
"CCCCCCCCC(C)OC(=O)CCCCCCCN(CCO)CCCCCCCC(=O)N(CCCCCCCC)CCCCCCCC (stereo not drawn) [Compound 130, Decan-2-yl 8-((8-(dioctylamino)-8-oxooctyl)(2-hydroxyethyl)amino)octanoate]",107.1 nm,8.17E+09,5.88E+07,1.35E+09,,,,
"CCCCCCCCCOC(=O)CCCCCCCN(CCCCCCCC(=O)OC(CCCCCCCC)CCCCCCCC)CCCN(C)S(C)(=O)=O [Compound 173, Heptadecan-9-yl 8-((3-(N-methylmethylsulfonamido)propyl)(8-(nonyloxy)-8-oxooctyl)amino)octanoate]",75.5 nm,,,,92.89%,,,
"CCCCCCCCCOC(=O)CCCCCCCN(CCCCCCCC(=O)OC(CCCCCCCC)CCCCCCCC)CCCOC(=O)NC [Compound 175, Heptadecan-9-yl 8-((3-((methylcarbamoyl)oxy)propyl)(8-(nonyloxy)-8-oxooctyl)amino)octanoate]",65.7 nm,,,,94.8%,,,
"CCCCCCCCCOC(=O)CCCCCCCN(CCCCCCCC(=O)OC(CCCCCCCC)CCCCCCCC)CCCn1ccnn1 [Compound 179, Heptadecan-9-yl 8-((3-(1H-1,2,3-triazol-1-yl)propyl)(8-(nonyloxy)-8-oxooctyl)amino)octanoate]",71.6 nm,,,,94.7%,,,
"CCCCCCCCC(CCCCCCCC)OC(=O)CCCCCCCN(CCO)CCCCCC(=O)OC(C)CCCCCCCCOC(C)=O (stereo not drawn) [Compound 235, Heptadecan-9-yl 8-((6-((10-acetoxydecan-2-yl)oxy)-6-oxohexyl)(2-hydroxyethyl)amino)octanoate]",,,,,,,228 nm,40.9%
"CCCCCCCCCOC(=O)CCCCCCCN(CCCCCCCC(=O)OC(CCCCCCCC)CCCCCCCC)CCCC(N)=O [Compound 243, Heptadecan-9-yl 8-((4-amino-4-oxobutyl)(8-(nonyloxy)-8-oxooctyl)amino)octanoate]",,,,,,,90.6 nm,99.4%

# Source: patent US10857105B2, “Compounds and compositions for intracellular delivery of therapeutic agents” (ModernaTX, Inc., priority 2017, dated 2020)
